Values after ≈ are worked out from the molar mass of the structure shown. Where two headings read alike, the source gives them in different places.
Key:
[1] = test system: Streptococcus pneumoniae (Chester, ATCC49619); assay: Broth microdilution MIC assay, Streptococcus pneumoniae; type: cell-based; conditions: for Antibacterial activity Streptococcus pneumoniae: MIC class score, MIC100, broth microdilution; for MIC: Streptococcus pneumoniae, ATCC49619, read-out: Antibacterial activity, SP (Streptococcus pneumoniae), MIC class
[2] = test system: vancomycin-resistant Enterococcus faecalis (ATCC51575); assay: microbe, parasite or virus in culture; type: cell-based; conditions: ATCC51575; vancomycin-resistant Enterococcus faecalis; read-out: Antibacterial activity, VREFs (vancomycin-resistant EFs), MIC class
[3] = test system: daptomycin-resistant Staphylococcus aureus (from MRSA COL); assay: Broth microdilution MIC assay, daptomycin-resistant MRSA; type: cell-based; conditions: 24 h, read-out: Antibacterial activity, MRSA strains with additional resistance, D (daptomycin), MIC class
[4] = test system: Staphylococcus aureus MRSA (COL); assay: Broth microdilution MIC assay, Staphylococcus aureus MRSA (COL); type: cell-based; conditions: for MIC: Staphylococcus aureus, MRSA, read-out: Antibacterial activity, MRSA (Staphylococcus aureus MRSA), MIC class; for Antibacterial activity Staphylococcus aureus (MRSA): MIC class score, MIC100, broth microdilution, COL strain
[5] = test system: Staphylococcus epidermidis (PCI 1200, ATCC12228); assay: Broth microdilution MIC assay, Staphylococcus epidermidis; type: cell-based; conditions: read-out: Antibacterial activity, SE (Staphylococcus epidermidis), MIC class
[6] = test system: Mycobacterium smegmatis (mc(2)155); assay: Broth microdilution MIC assay, Mycobacterium smegmatis
[7] = test system: Enterococcus faecalis (ATCC29212); assay: Broth microdilution MIC assay, Enterococcus faecalis; type: cell-based; conditions: read-out: Antibacterial activity, EFs (Enterococcus faecalis), MIC class
[8] = test system: vancomycin-resistant Enterococcus faecium (ATCC51559); assay: microbe, parasite or virus in culture; type: cell-based
[9] = test system: Enterococcus faecium (AGR15, ATCCBAA-2127); assay: Broth microdilution MIC assay, Enterococcus faecium; type: cell-based; conditions: ATCCBAA2127, read-out: Antibacterial activity, EFm (Enterococcus faecium), MIC class
[10] = test system: Staphylococcus aureus MSSA (Newman); assay: Broth microdilution MIC assay, Staphylococcus aureus MSSA (Newman); type: cell-based; conditions: for Antibacterial activity Staphylococcus aureus (MSSA): MIC class score, MIC100, broth microdilution, Newman strain
[11] = test system: platensimycin-resistant Staphylococcus aureus (from MRSA COL); assay: Broth microdilution MIC assay, platensimycin-resistant MRSA; type: cell-based; conditions: 24 h, read-out: Antibacterial activity, MRSA strains with additional resistance, P (platensimycin), MIC class
[12] = test system: MRSA (COL) resistant to triclosan; assay: Broth microdilution MIC assay, triclosan-resistant MRSA; conditions: Staphylococcus aureus, read-out: Antibacterial activity, MRSA strains with additional resistance, T (triclosan), MIC class
[13] = ATCC51559, vancomycin-resistant Enterococcus faecium, read-out: Antibacterial activity, VREFm (vancomycin-resistant EFm), MIC class

SMILES | Antibacterial activity Streptococcus pneumoniae [1] | MIC [2] | MIC [1] | MIC [7] | MIC [8, 13] | further results
Cc1[nH]c(-c2ccc(-c3cccc(Cl)c3Cl)o2)nc1-c1ccccc1 [compound 2] | 3 (MIC100 of 2-5 μg/ml) | 20 to 50 µg/mL (≈ 54.2 to 135 µM) | – | – | – | MIC [3]: 3 to 10 µg/mL (≈ 8.12 to 27.1 µM)
Cc1[nH]c(-c2ccc(-c3ccccc3Cl)o2)nc1-c1ccccc1 [compound 3] | – | – | < 1 µg/mL | – | – | MIC [4]: 11 to 20 µg/mL (≈ 32.9 to 59.7 µM); MIC [5]: 11 to 20 µg/mL (≈ 32.9 to 59.7 µM)
Cc1[nH]c(-c2ccc(-c3ccccc3F)s2)nc1-c1ccccc1 [compound 15] | – | – | – | – | – | Antibacterial activity, MS (Mycobacterium smegmatis), MIC class [6]: 2 (MIC100 of 11-20 μg/ml)
Cc1nc(-c2ccc(-c3ccc(Cl)cc3Cl)o2)[nH]c1-c1ccc(F)cc1 [compound 16] | – | 20 to 50 µg/mL (≈ 51.6 to 129 µM) | 2 to 5 µg/mL (≈ 5.16 to 12.9 µM) | 20 to 50 µg/mL (≈ 51.6 to 129 µM) | 20 to 50 µg/mL (≈ 51.6 to 129 µM) | –
Cc1[nH]c(-c2ccc(-c3ccccc3C(F)(F)F)o2)nc1-c1ccccc1 [compound 17] | 3 (MIC100 of 2-5 μg/ml) | – | 2 to 5 µg/mL (≈ 5.43 to 13.6 µM) | – | – | MIC [9]: 20 to 50 µg/mL (≈ 54.3 to 136 µM)
Cc1[nH]c(-c2ccc(-c3ccccc3OC(F)(F)F)o2)nc1-c1ccccc1 [compound 18] | 3 (MIC100 of 2-5 μg/ml) | 20 to 50 µg/mL (≈ 52 to 130 µM) | 2 to 5 µg/mL (≈ 5.2 to 13 µM) | 20 to 50 µg/mL (≈ 52 to 130 µM) | 20 to 50 µg/mL (≈ 52 to 130 µM) | MIC [9]: 20 to 50 µg/mL (≈ 52 to 130 µM)
Cc1nc(-c2ccc(-c3ccccc3OC(F)(F)F)o2)[nH]c1-c1cccc(Cl)c1 [compound 21] | – | 20 to 50 µg/mL (≈ 47.8 to 119 µM) | – | 20 to 50 µg/mL (≈ 47.8 to 119 µM) | 20 to 50 µg/mL (≈ 47.8 to 119 µM) | Antibacterial activity Staphylococcus aureus (MSSA) [10]: 3 (MIC100 of 3-10 μg/ml); Antibacterial activity Staphylococcus aureus (MRSA) [4]: 3 (MIC100 of 3-10 μg/ml); MIC [4]: 3 to 10 µg/mL (≈ 7.16 to 23.9 µM); MIC [11]: 3 to 10 µg/mL (≈ 7.16 to 23.9 µM); MIC [12]: 3 to 10 µg/mL (≈ 7.16 to 23.9 µM)
Cc1nc(-c2ccc(-c3ccccc3C(F)(F)F)o2)[nH]c1-c1cccc(Cl)c1 [compound 22] | 3 (MIC100 of 2-5 μg/ml) | – | 2 to 5 µg/mL (≈ 4.97 to 12.4 µM) | – | – | Antibacterial activity Staphylococcus aureus (MSSA) [10]: 2 (MIC100 of 11-20 μg/ml); MIC ([10]; Staphylococcus aureus, read-out: Antibacterial activity, MSSA (Staphylococcus aureus MSSA), MIC class): 11 to 20 µg/mL (≈ 27.3 to 49.7 µM)
Cc1[nH]c(-c2ccc(-c3ccccc3OC(F)(F)F)o2)nc1-c1ccc(F)cc1 [compound 23, 4-(4-Fluoro-phenyl)-5-methyl-2-[5-(2-trifluoromethoxy-phenyl)-furan-2-yl]-1H-imidazole] | – | 20 to 50 µg/mL (≈ 49.7 to 124 µM) | – | 20 to 50 µg/mL (≈ 49.7 to 124 µM) | 20 to 50 µg/mL (≈ 49.7 to 124 µM) | MIC [9]: 20 to 50 µg/mL (≈ 49.7 to 124 µM)
Cc1nc(-c2ccc(-c3ccccc3OC(F)(F)F)o2)[nH]c1-c1ccc(Br)cc1 [compound 29] | 3 (MIC100 of 2-5 μg/ml) | – | 2 to 5 µg/mL (≈ 4.32 to 10.8 µM) | – | – | Antibacterial activity Staphylococcus aureus (MRSA) [4]: 2 (MIC100 of 11-20 μg/ml)
Cc1[nH]c(-c2ccn(-c3ccccc3C(F)(F)F)c2)nc1-c1ccccc1 [compound 33] | – | – | 6 to 10 µg/mL (≈ 16.3 to 27.2 µM) | – | – | MIC [5]: 11 to 20 µg/mL (≈ 29.9 to 54.4 µM)
Cc1[nH]c(-c2cc(C)n(-c3cccc(C(F)(F)F)c3)c2C)nc1-c1ccccc1 [compound 36] | – | – | 2 to 5 µg/mL (≈ 5.06 to 12.6 µM) | – | – | Antibacterial activity Staphylococcus aureus (MRSA) [4]: 2 (MIC100 of 11-20 μg/ml)
Cc1nc(-c2ccc(-c3cccc(OC(F)(F)F)c3)o2)[nH]c1-c1ccc(F)cc1 [compound 37] | – | 20 to 50 µg/mL (≈ 49.7 to 124 µM) | < 1 µg/mL | 20 to 50 µg/mL (≈ 49.7 to 124 µM) | 20 to 50 µg/mL (≈ 49.7 to 124 µM) | Antibacterial activity, MS (Mycobacterium smegmatis), MIC class [6]: 2 (MIC100 of 11-20 μg/ml)
Cc1[nH]c(-c2ccc(-c3cccc(C(F)(F)F)c3)o2)nc1-c1ccc(F)cc1 [compound 38] | 3 (MIC100 of 2-5 μg/ml) | – | 2 to 5 µg/mL (≈ 5.18 to 12.9 µM) | 20 to 50 µg/mL (≈ 51.8 to 129 µM) | – | MIC ([8]; Enterococcus faecium, ATCC51559, read-out: Antibacterial activity, VREFm (vancomycin-resistant EFm), MIC class): 20 to 50 µg/mL (≈ 51.8 to 129 µM)
Cc1[nH]c(-c2ccc(-c3ccc(Cl)c(C(F)(F)F)c3)o2)nc1-c1ccccc1 [compound 39] | – | 20 to 50 µg/mL (≈ 49.7 to 124 µM) | < 1 µg/mL | 20 to 50 µg/mL (≈ 49.7 to 124 µM) | 20 to 50 µg/mL (≈ 49.7 to 124 µM) | –
Cc1nc(-c2ccc(-c3ccc(Cl)c(OC(F)(F)F)c3)o2)[nH]c1-c1ccccc1 [compound 41] | – | 20 to 50 µg/mL (≈ 47.8 to 119 µM) | – | 20 to 50 µg/mL (≈ 47.8 to 119 µM) | 20 to 50 µg/mL (≈ 47.8 to 119 µM) | MIC [5]: 11 to 20 µg/mL (≈ 26.3 to 47.8 µM)
Cc1[nH]c(-c2ccc(-c3ccc(Cl)c(C(F)(F)F)c3)o2)nc1-c1ccc(F)cc1 [compound 42] | – | 11 to 20 µg/mL (≈ 26.1 to 47.5 µM) | – | 11 to 20 µg/mL (≈ 26.1 to 47.5 µM) | 20 to 50 µg/mL (≈ 47.5 to 119 µM) | MIC [9]: 20 to 50 µg/mL (≈ 47.5 to 119 µM)
Cc1nc(-c2ccc(-c3ccc(Cl)c(OC(F)(F)F)c3)o2)[nH]c1-c1ccc(F)cc1 [compound 43] | – | – | – | 20 to 50 µg/mL (≈ 45.8 to 114 µM) | – | Antibacterial activity Staphylococcus aureus (MRSA) [4]: 2 (MIC100 of 11-20 μg/ml)
